One series deals with Ebolavirus. As to the kind of experiment: Antiviral activity against pseudotyped EBOV Mayinga infected in human A549 cells assessed as inhibition of Pseudoviral entry incubated for 40 hrs. It is filed as functional, organism-based. The note with it: Orthoebolavirus, A549, 40 h.
Series [1] can be described thus: Selectivity index, ratio of CC50 for cytotoxicity against human A549 cells to EC50 for antiviral activity against pseudotyped EBOV Mayinga infected in human A549 cells assessed as inhibition of Pseudoviral entry. The class given is toxicity, cell-based. Particulars: read-out: Ratio CC50/EC50.
A further series deals with Marburgvirus. As to the kind of experiment: Antiviral activity against pseudotyped Marburgvirus Angola infected in human A549 cells assessed as inhibition of Pseudoviral entry incubated for 40 hrs. Particulars: Orthomarburgvirus, A549, 40 h. It is filed as functional, organism-based.
Series [2] in a line: Selectivity index, ratio of CC50 for cytotoxicity against human A549 cells to EC50 for antiviral activity against pseudotyped Marburgvirus Angola infected in human A549 cells assessed as inhibition of Pseudoviral entry. It is filed as toxicity, cell-based. The note with it: read-out: Ratio CC50/EC50.

`CN(C)CCNC(=O)c1cc2occc2n1Cc1ccc(F)cc1`: the EC50 with Ebolavirus was found to be 2.62 µM; in the series with Marburgvirus, 10.8 µM. In addition, the selectivity ratio in series [1] is over 38; in series [2], over 93.

For the compound `CN(C)C1CCN(C(=O)c2cc3ccccc3n2Cc2ccncc2)CC1`, the EC50 in the series with Ebolavirus came out at 162 µM; in the series on Marburgvirus it was 3.78 µM. For the same compound, the selectivity ratio is over 6.2 in series [1] and 27 in series [2].

On to `CN(C)C1CCN(C(=O)c2cc3occc3n2Cc2ccc(F)cc2)CC1`, for which the EC50 amounted to 3.93 µM in the series with Ebolavirus and 11.4 µM in the series on Marburgvirus. Moreover, the selectivity ratio in series [1] is over 25; in series [2], over 8.8.

Take `CN(C)CCNC(=O)c1cc2sccc2n1Cc1ccc(Cl)cc1`: the results for the EC50 with Ebolavirus and in the series on Marburgvirus were 2.17 µM and 3.14 µM, respectively. Moreover, the selectivity ratio was found to be 19 in series [1] and 13 in series [2].

As for `CN(C)CCNC(=O)c1cc2occc2n1C(=O)OCc1ccccc1`, the results for the EC50 in the series on Ebolavirus and in the series with Marburgvirus were 8.11 µM and 31.1 µM, respectively. Further, the selectivity ratio in series [1] was over 12; in series [2], over 3.1.

For `CN(C)CCNC(=O)c1cc2ccccc2n1Cc1ccc(-c2ccccc2)cc1`, the concentration giving a half-maximal response (EC50) in the series on Ebolavirus amounted to 2.77 µM; in the series on Marburgvirus, 3.1 µM. For the same compound, the selectivity ratio in series [1] was determined as 5.9; in series [2], 14.

For `CN(C)C1CCN(C(=O)c2cc3ccccc3n2Cc2ccc(-c3ccccc3)cc2)CC1`, the figures for the EC50 in the series with Ebolavirus and with Marburgvirus were 1.06 µM and 1.99 µM, respectively. For the same compound, the selectivity ratio in series [1] came to 14; in series [2], 7.2.

As to `CN1CCCN(C(=O)c2cc3sccc3n2Cc2ccc(Cl)cc2)CC1`, the EC50 in the series with Ebolavirus was 4.16 µM; in the series with Marburgvirus, 10.8 µM. The selectivity ratio is 24 in series [1] and 9.3 in series [2].

Take `CN(C)C1CCN(C(=O)c2cc3ccccc3n2C)CC1`: the EC50 in the series on Ebolavirus was 16.5 µM; in the series with Marburgvirus it was over 100 µM. The selectivity ratio in series [1] was over 6.1; in series [2], under 1.

Take `CN(C)CCNC(=O)c1cc2occc2n1Cc1cccc(C(F)(F)F)c1`: the EC50 turned out to be 1.68 µM in the series on Ebolavirus and 4.29 µM in the series with Marburgvirus. In addition, the selectivity ratio in series [1] came to 32; in series [2] it was 13.

With `O=C(NCCCn1ccnc1)c1cc2occc2n1Cc1ccc(Cl)cc1`, the 50% effective concentration (EC50) in the series with Ebolavirus was 6.24 µM; in the series with Marburgvirus, 13.2 µM. Besides, the selectivity ratio in series [1] was 16; in series [2], 7.6.

On to `CCN(CC)CCNC(=O)c1cc2occc2n1Cc1ccc(Cl)cc1`, for which the EC50 came to 1.61 µM in the series with Ebolavirus and 3.67 µM with Marburgvirus. The selectivity ratio in series [1] came to 38; in series [2], 17.

As for `CN1CCN(CCCNC(=O)c2cc3occc3n2Cc2ccc(Cl)cc2)CC1`, the EC50 in the series on Ebolavirus was 1.86 µM; with Marburgvirus, 7.7 µM. Besides, the values for the selectivity ratio in series [1] and in series [2] were 42 and 10, respectively.

Consider `CN(C)CCCNC(=O)c1cc2occc2n1Cc1ccc(Cl)cc1`, for which the concentration giving a half-maximal response (EC50) came to 2.01 µM in the series with Ebolavirus and 5.52 µM in the series on Marburgvirus. In addition, the selectivity ratio was 36 in series [1] and 13 in series [2].

For the compound `CN1CCCN(C(=O)c2cc3occc3n2Cc2ccc(Cl)cc2)CC1`, the figures for the concentration giving a half-maximal response (EC50) in the series on Ebolavirus and in the series with Marburgvirus were 1.41 µM and 10.5 µM, respectively. For the same compound, the selectivity ratio in series [1] was found to be 71; in series [2], 9.6.

In the case of `CN(C)CCNC(=O)c1cc2ccccc2n1Cc1ccc(F)cc1`, the EC50 came to 3.39 µM with Ebolavirus and 4.21 µM in the series with Marburgvirus. Also, the selectivity ratio was determined as 16 in series [1] and 8.9 in series [2].

Take `CN(C)CCNC(=O)c1cc2ccccc2n1Cc1ccccc1`: the EC50 in the series with Ebolavirus amounted to 2.74 µM; in the series with Marburgvirus, 6.8 µM. The selectivity ratio in series [1] came out at 24; in series [2] it was 9.5.

In the case of `O=C(NCCN1CCC1)c1cc2occc2n1Cc1cccc(C(F)(F)F)c1`, the EC50 with Ebolavirus turned out to be 1.94 µM; in the series with Marburgvirus, 6.22 µM. The selectivity ratio amounted to 20 in series [1] and 6.2 in series [2].

For `CN(C)CCNC(=O)c1cc2occc2n1C`, the half-maximal effective concentration (EC50) with Ebolavirus and with Marburgvirus was over 100 µM in each case. The selectivity ratio in series [1] and in series [2] was 1 throughout.

Regarding `CN(C)C1CCN(C(=O)c2cc3occc3n2C(=O)OCc2ccccc2)CC1`, the 50% effective concentration (EC50) in the series on Ebolavirus was 1.68 µM; in the series with Marburgvirus, 29.8 µM. The selectivity ratio in series [1] is over 60; in series [2], over 3.4.

As for `CN1CCN(C(=O)c2cc3sccc3n2Cc2ccc(Cl)cc2)CC1`, the half-maximal effective concentration (EC50) was 9.75 µM in the series on Ebolavirus and 24.7 µM in the series on Marburgvirus. For the same compound, the selectivity ratio worked out at 10 in series [1] and 4.1 in series [2].

In the case of `CC(C)N1CCN(C(=O)c2cc3occc3n2Cc2cccc(C(F)(F)F)c2)CC1`, the figures for the EC50 in the series on Ebolavirus and in the series on Marburgvirus were 3.43 µM and 22.2 µM, respectively. Besides, the selectivity ratio in series [1] is 29; in series [2], 4.4.

For the compound `CN(C)CCNC(=O)c1cc2occc2n1Cc1ccccc1`, the EC50 is 4.51 µM in the series on Ebolavirus and 25.6 µM in the series with Marburgvirus. The figures for the selectivity ratio in series [1] and in series [2] were 22 and 3.9, respectively.

In the case of `O=C(c1cc2sccc2n1Cc1ccc(Cl)cc1)N1CCN(C2CCCCC2)CC1`, the EC50 with Ebolavirus is 10.9 µM; with Marburgvirus it was 13.9 µM. Further, the selectivity ratio in series [1] stood at 4.9; in series [2], 3.8.

Consider `CN(C)CCNC(=O)c1cn(Cc2ccc(F)cc2)c2ccccc12`, for which the figures for the EC50 in the series with Ebolavirus and in the series on Marburgvirus were 3 µM and 6.47 µM, respectively. Further, the selectivity ratio in series [1] was 21; in series [2], 8.9.

As to `CN(C)C1CCN(C(=O)c2cn(Cc3ccc(F)cc3)c3ccccc23)CC1`, the EC50 in the series with Ebolavirus amounted to 2.54 µM; with Marburgvirus it was 10.9 µM. The selectivity ratio stood at 30 in series [1] and 6.9 in series [2].

On to `O=C(NCCCn1ccnc1)c1cc2occc2n1Cc1cccc(C(F)(F)F)c1`, for which the figures for the EC50 with Ebolavirus and in the series with Marburgvirus were 4.32 µM and 9.78 µM, respectively. Also, the selectivity ratio was 13 in series [1] and 5.9 in series [2].

As for `CN(C)C1CCN(C(=O)c2cccn2Cc2ccccc2)CC1`, the concentration giving a half-maximal response (EC50) with Ebolavirus stood at 1.11 µM; in the series with Marburgvirus it was 17.8 µM. In addition, the selectivity ratio in series [1] stood at 90; in series [2], 5.6.

`O=C(c1cc2ccccc2n1Cc1ccccc1)N1CCCCC1`: the EC50 in the series on Ebolavirus was 9.11 µM; in the series on Marburgvirus, over 100 µM. For the same compound, the selectivity ratio in series [1] and in series [2] was 11 each time.

For `CC(C)N1CCN(C(=O)c2cc3sccc3n2Cc2ccc(Cl)cc2)CC1`, the EC50 was 5.84 µM in the series with Ebolavirus and 32.8 µM in the series with Marburgvirus. The selectivity ratio worked out at 17 in series [1] and 3.1 in series [2].

Take `CN1CCCN(C(=O)c2cc3occc3n2Cc2cccc(C(F)(F)F)c2)CC1`: the EC50 with Ebolavirus is 1.73 µM; in the series on Marburgvirus it was 8.64 µM. The selectivity ratio in series [1] is 40; in series [2] it was 8.1.

As to `CN(C)CCNC(=O)c1cn(Cc2ccccc2)c2ccccc12`, the figures for the EC50 with Ebolavirus and with Marburgvirus were 3.28 µM and 11.1 µM, respectively. The selectivity ratio in series [1] worked out at 21; in series [2], 6.1.

On to `CN(C)C1CCN(C(=O)CN(Cc2ccccc2)c2ccccc2)CC1`, for which the figures for the EC50 with Ebolavirus and in the series with Marburgvirus were 10.7 µM and over 100 µM, respectively. The selectivity ratio is 9.4 in series [1] and under 1 in series [2].
